# Data: PMC12075686, “Structural basis of phosphorylation-independent nuclear import of CIRBP by TNPO3” (Nature Communications, 2025)
# Residue numbers refer to the chain shown, from its start.
# Legend:
# TNPO3 [1] = conditions: SAXS, monomer/dimer equilibrium; read-out: dissociation constant of TNPO3 dimerization in solution; cited from earlier work
# Source text: We next aimed to gain insight into the structural basis for TNPO3 recognition of RSY-NLS and obtained crystals of TNPO3 C511A bound to CIRBP^RSY that diffracted X-rays to 2.94 Å resolution. This TNPO3 mutant was used for the determination of the 3D X-ray structure of the TNPO3-SRSF1 complex and increases TNPO3 stability. […] TNPO3 forms a dimer in the asymmetric unit of the crystal structure, as previously observed ... || page 9: Figure 2: Is TNPO3 a monomer in solution? In order for the reader to understand where are the additional contact points described in Sup Fig 2, a global view of the different contact points would be helpful. […] Out of the additional contact points in the crystal structure, the intermolecular salt bridge of E304 with K877 is the only contact which we could observe in both directions (chain A – chain B and vice versa). We in ...
# TNPO3 [2] = assay: NMR binding studies with TNPO3 (1H-15N HSQC, 1H-13C HMQC, 1H 1D, STD); design: species or system human
# Method: All NMR studies for TNPO3 were carried out using the wild type protein. Protein samples for ^1H-^13C HMQC were prepared at a concentration of 100 μM and equilibrated in a buffer containing 50 mM Tris–HCl, pH 6.7, 150 mM NaCl, 2 mM TCEP and 10% D2O. Spectral acquisitions for TNPO3 free and in complex with CIRBP^RSY and SRSF1^RS, respectively were performed at 298 K on a 700 MHz Bruker Avance III NMR spectrometer equipped with a TCI triple-resonance cryoprobe. The pulse program was sfhmqcf2gpph and the spectra were recorded with 32 scans, interscan delay of 1 s, 160 points in F1, 1024 points in F2, 5283.879 Hz spectral width in F1, and 11,160.714 Hz spectral width in F2. Spectra were processed using Topspin 4.1.3.
# Spectral acquisitions for TNPO3 free and in complex with mCIRBP^RSY, pCIRBP^RSY, and pSRSF1^RS, respectively, were performed at 298 K on a 600 MHz Bruker Avance Neo NMR spectrometer equipped with a TXI 600S3 probehead. The pulse program was hmqcgpphwg and the spectra were recorded with 64 scans, interscan delay of 1 s, 200 points in F1, 1024 points in F2, 4545.455 Hz spectral width in F1, and 7812.500 Hz spectral width in F2. Spectra were processed using Topspin 4.3.0.
# For ^1H-^15N HSQC spectra, protein samples were equilibrated in a buffer containing 50 mM Tris–HCl, pH 6.7, 150 mM NaCl, 2 mM TCEP, 0.04% NaN3, and 10% D2O (with additional 20 mM MgCl2 for CIRBP phosphorylation kinetics). Data were recorded at 298 K on the 600 MHz Bruker Avance Neo NMR spectrometer equipped with a TXI 600S3 probehead. The pulse program was hsqcetfpf3gpsi and was recorded with 8-16 scans, interscan delay of 1 s, 128 points in F1, 1024 points in F2, 1949.318 Hz spectral width in F1, and 9615.385 Hz spectral width in F2. Spectra were processed using Topspin 4.3.0.
# TNPO3 WT = target: T1, TNPO3 WT (Homo sapiens, UniProt Q9Y5L0); assay: ITC, ligand titrated into TNPO3 WT; assay type: binding; conditions: ITC, TNPO3 WT
# T1 sequence (Q9Y5L0 1-923): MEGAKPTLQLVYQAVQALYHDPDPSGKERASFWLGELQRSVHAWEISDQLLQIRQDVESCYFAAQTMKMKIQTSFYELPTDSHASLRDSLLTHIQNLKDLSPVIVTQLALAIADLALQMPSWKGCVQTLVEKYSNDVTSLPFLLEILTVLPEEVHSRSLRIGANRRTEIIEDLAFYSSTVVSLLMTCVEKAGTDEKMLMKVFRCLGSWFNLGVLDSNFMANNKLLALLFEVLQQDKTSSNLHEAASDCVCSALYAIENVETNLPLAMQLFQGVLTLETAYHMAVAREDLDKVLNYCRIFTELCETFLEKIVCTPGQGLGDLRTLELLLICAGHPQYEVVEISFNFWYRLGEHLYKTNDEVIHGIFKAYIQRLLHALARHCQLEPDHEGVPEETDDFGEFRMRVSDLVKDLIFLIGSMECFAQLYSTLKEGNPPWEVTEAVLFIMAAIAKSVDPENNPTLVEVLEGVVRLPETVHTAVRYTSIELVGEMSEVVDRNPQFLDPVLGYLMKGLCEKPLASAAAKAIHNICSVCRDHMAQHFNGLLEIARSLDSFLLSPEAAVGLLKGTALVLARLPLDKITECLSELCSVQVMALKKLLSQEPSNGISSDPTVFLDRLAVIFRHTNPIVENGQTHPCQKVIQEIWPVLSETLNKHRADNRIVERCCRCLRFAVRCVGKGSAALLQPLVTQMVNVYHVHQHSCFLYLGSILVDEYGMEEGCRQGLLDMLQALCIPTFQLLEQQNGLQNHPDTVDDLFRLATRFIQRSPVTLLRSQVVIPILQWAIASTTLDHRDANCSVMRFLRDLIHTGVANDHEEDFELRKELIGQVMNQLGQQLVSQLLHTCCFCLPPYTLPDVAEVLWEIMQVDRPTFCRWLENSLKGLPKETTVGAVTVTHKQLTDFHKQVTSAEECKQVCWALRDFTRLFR
# Method: (§1) ITC has been performed by a Malvern Microcal VP-ITC at 25 °C for all binding studies. Samples have been dissolved in Tris buffer containing 50 mM Tris–HCl, 150 mM NaCl, 2 mM TCEP, and 0.04% NaN3 at pH 7.5. Binding studies of CIRBP^RSY and SRSF1^RS were performed with TNPO3 WT, and studies of CIRBP (157–172) and its mutants/phosphorylations were performed with TNPO3 C511A, respectively. Injection has been carried out by a syringe containing ligand solution of 100 μM, which adds ligand step-wise into the cell containing 10 μM TNPO3 during 28 injections of 10 μL each. Data analysis, curve fitting, and calculation of Kd, ΔH, and ΔS have been carried out using Origin-based 7.0 software provided by the manufacturer. All replicated ITC data are shown in Supplementary Fig. 6 and Supplementary Table 1.
# TNPO3 C511A = target: T2, TNPO3 C511A (Homo sapiens, UniProt Q9Y5L0, C511A); assay: ITC, ligand titrated into TNPO3 C511A; assay type: binding; conditions: TNPO3 C511A
# T2 construct: full-length (FL) WT human TNPO3 were generated by synthesizing codon-optimized DNA fragments; His6 (N, cleaved yes); protein A (N, cleaved yes); made in house; host or cells: Escherichia coli BL21-(DE3) Star
# T2 sequence (Q9Y5L0 1-923 C511A): T1 sequence (Q9Y5L0 1-923) with C511A
# Method: as §1
# transportin-1 (TNPO1) = conditions: cited from earlier work
# Source text: CIRBP, a nuclear protein known for its role in regulating mRNA stability and DNA repair, translocates from the nucleus to the cytoplasm under stress condition, forming stress granules[31],[32]. It is a typical RNA-binding pro ... || page 4: REVIEWER COMMENTS Comments are highlighted with a green background Reviewer #1 (Remarks to the Author) TNPO3 is an important karyopherin involved in some human pathologies and HIV-1 infection. Its best characterized biological function is in nuclear import of SR and SR-like repeat containing proteins, such as SFRS1 and CPSF6. […] Intriguingly, TNPO3 engages these alternative NLSs via the same region, which it ...
ΔS (TNPO3 WT; replicate 1 (rep1)),ΔS (TNPO3 WT; replicate 2 (rep2)),"ΔS (TNPO3 C511A; rep1, reference for alanine mutation)","ΔS (TNPO3 C511A; rep2, reference for alanine mutation)",Substance,Kd (TNPO3 [1]) [µM],change of peptide 1H 1D NMR signals with sub-stoichiometric TNPO3 (TNPO3 [2]; 100 µM RSY regions and 10 µM TNPO3 (peer review reply)),"chemical shift perturbations of TNPO3 methyl groups upon ligand addition (1H,13C HMQC) (TNPO3 [2]; 100 µM [IM-methyl 13C] labeled TNPO3, one stoichiometric equivalent of ligand, 298 K, pH 6.7)",fold lower binding affinity for TNPO1 than for TNPO3 (transportin-1 (TNPO1))
,,,,"TNPO3: Transportin 3, nuclear import receptor; here its own monomer/dimer equilibrium",8.3 ± 1,,,
–101 cal/mol/deg,–192 cal/mol/deg,–124 cal/mol/deg,–242 cal/mol/deg,H-GSRDYYSSRSQSGGYSDRSSGGSYRDSYDSYATHNE-OH [CIRBP^RSY],,slight decrease of peptide signal intensity,"led to CSPs of several TNPO3 ^1H,^13C cross-peaks",approximately 70
